Patent publication US20240042019A1, “OPTIMIZED TLR7 LIGANDS AND USES THEREOF” (Genentech, Inc., priority 2021, published 2024)
Where two headings read alike, the source gives them in different places. Oligonucleotides are written 5' to 3', each unit as a sugar letter and its base; * is a phosphorothioate linkage, no mark a phosphodiester; rarer units and linkages stand in square brackets, end groups in braces. Plain capitals give the bases only. m = 2'-O-methyl; r = 2'-OH (RNA); f = 2'-fluoro

Legend:
Type in all cases: cell-based
TLR7 [1] = target: T1, TLR7 (Homo sapiens, UniProt Q9NYK1); experiment: PBMC stimulation with p-L-arginine-complexed RNA ligands, IFN-α ELISA; conditions: human PBMCs; for IFN-α secretion (TLR7 activity): p-L-arginine delivery, 16 hours, ELISA (FIG. 7); for IFN-α secretion when co-delivered with 2′3′ cGMP: p-L-arginine complexes with 2′3′ cyclic GMP 5 μg/ml, ORN 0.6 μg/ml (FIG. 12)
T1 construct: Peripheral blood mononuclear cells (PBMCs) were obtained from buffy coats from healthy adult donors; endogenous in cells; host or cells: primary human PBMCs from healthy donor buffy coats (TLR7 expressed by pDCs)
T1 sequence (Q9NYK1 27-1049): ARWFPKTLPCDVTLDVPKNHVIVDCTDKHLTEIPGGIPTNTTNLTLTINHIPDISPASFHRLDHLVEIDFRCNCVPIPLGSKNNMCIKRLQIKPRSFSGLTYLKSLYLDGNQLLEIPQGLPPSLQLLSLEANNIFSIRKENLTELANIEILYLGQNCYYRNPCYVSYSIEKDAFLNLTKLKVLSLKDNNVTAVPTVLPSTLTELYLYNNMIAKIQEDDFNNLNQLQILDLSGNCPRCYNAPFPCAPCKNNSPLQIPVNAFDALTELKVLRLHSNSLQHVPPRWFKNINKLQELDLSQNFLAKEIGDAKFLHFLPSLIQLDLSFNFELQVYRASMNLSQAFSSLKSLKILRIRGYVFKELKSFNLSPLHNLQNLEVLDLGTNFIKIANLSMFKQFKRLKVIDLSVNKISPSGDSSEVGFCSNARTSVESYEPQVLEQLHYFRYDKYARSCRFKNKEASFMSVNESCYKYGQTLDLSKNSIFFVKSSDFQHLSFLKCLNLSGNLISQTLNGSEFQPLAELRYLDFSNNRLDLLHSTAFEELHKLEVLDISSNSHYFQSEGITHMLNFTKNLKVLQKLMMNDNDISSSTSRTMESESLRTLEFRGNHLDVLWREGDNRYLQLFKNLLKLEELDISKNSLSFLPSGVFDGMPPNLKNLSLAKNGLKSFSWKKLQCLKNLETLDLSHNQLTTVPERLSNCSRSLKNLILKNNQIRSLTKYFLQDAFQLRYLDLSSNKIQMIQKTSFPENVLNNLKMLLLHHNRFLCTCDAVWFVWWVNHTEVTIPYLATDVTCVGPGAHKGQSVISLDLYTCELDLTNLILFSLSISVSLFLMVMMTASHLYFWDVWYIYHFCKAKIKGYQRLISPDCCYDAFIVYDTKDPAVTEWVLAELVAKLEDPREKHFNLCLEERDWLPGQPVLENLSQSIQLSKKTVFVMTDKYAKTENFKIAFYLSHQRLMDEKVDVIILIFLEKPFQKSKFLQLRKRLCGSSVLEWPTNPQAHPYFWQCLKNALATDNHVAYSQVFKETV
Protocol: (§1) Peripheral blood mononuclear cells (PBMCs) were obtained from buffy coats from healthy adult donors. Buffy coat samples were first diluted with an equal volume of phosphate-buffered saline (PBS). Next, PBMCs were isolated via density gradient centrifugation with Lymphoprep density gradient media ([…] Technologies) and SepMate-50 tubes ([…] Technologies). Samples were centrifuged at 1000 g for 15 minutes. After centrifugation, the upper layers were collected by pouring into a new tube, diluted with PBS, and centrifuged at 450×g for 5 minutes. To lyse red blood cells, cell pellets were resuspended with 10 mL Ammonium-Chloride-Potassium (ACK) Lysis Buffer and incubated for 8 minutes at room temperature. After lysis, cells were washed with PBS and passed through two 70 μm cell strainers. Viable cell counts were determined with a Vi-CELL cell counter (Beckman Coulter). […] Guanosine was added between about 20 and about 30 minutes before the addition of poly-[…])-complexed RNA. […] After mixing by pipetting up and down, the reaction was incubated for 10 minutes, pipetted up and down again, and then added to the cells. In some experiments, RNA ligands were used at a final concentration of 0.6 μg/ml. Where indicated as “+2'3' cGMP”, 2'3' cyclic GMP purchased from eMolecules was complexed together with the RNA ligands. The final concentration of 2'3' cyclic GMP was 5 μg/ml. p-L-arginine was adjusted accordingly to keep the mass ratio of nucleic acid:p-L-arginine constant. Cell culture supernatants were collected 15-18 hours after stimulation and stored at -80° C. Cytokines in cell culture supernatants were detected with the BD OptEIA human TNF ELISA Set (BD Biosciences), and either Invitrogen IFN alpha Human Matched Antibody Pair kit (Thermo Fisher Scientific) or Human IFN Alpha Multi-Subtype ELISA Kit (PBL Assay Science). To test the effects of the RNA ligands described in Example 1 on TLR7 and TLR8 activation, PBMCs were stimulated with the RNA ligands using p-L-arginine complex delivery, delivery with DOTAP, or delivery without a carrier. Activity of TLR7 and TLR8 was assessed based on measurements of IFN-α or TNF-α by enzyme-linked immunosorbent assays (ELISA). In this setting, as depicted in FIG. 6, IFN-α induced by small RNAs is derived from TLR7 expressed by pDCs, or from RIG-I expressed by monocytes. In contrast, TNF-α secretion is derived from monocytes and serves as an indication of TLR8 activation. As shown in this figure, the p-L-arginine delivery restricts most of the activation to TLRs. First, the effects of the RNA ligands on TLR7 and TLR8 activation using p-L-arginine complex delivery were tested.

TLR7 [2] = target: T1, TLR7; experiment: PBMC stimulation with DOTAP-complexed RNA ligands, IFN-α ELISA
TLR8 [3] = target: T2, TLR8 (Homo sapiens, UniProt Q9NR97); experiment: PBMC stimulation with DOTAP-complexed RNA ligands, TNF-α ELISA
T2 construct: Peripheral blood mononuclear cells (PBMCs) were obtained from buffy coats from healthy adult donors; endogenous in cells; host or cells: primary human PBMCs from healthy donor buffy coats (TLR8 in monocytes)
T2 sequence (Q9NR97 27-1041): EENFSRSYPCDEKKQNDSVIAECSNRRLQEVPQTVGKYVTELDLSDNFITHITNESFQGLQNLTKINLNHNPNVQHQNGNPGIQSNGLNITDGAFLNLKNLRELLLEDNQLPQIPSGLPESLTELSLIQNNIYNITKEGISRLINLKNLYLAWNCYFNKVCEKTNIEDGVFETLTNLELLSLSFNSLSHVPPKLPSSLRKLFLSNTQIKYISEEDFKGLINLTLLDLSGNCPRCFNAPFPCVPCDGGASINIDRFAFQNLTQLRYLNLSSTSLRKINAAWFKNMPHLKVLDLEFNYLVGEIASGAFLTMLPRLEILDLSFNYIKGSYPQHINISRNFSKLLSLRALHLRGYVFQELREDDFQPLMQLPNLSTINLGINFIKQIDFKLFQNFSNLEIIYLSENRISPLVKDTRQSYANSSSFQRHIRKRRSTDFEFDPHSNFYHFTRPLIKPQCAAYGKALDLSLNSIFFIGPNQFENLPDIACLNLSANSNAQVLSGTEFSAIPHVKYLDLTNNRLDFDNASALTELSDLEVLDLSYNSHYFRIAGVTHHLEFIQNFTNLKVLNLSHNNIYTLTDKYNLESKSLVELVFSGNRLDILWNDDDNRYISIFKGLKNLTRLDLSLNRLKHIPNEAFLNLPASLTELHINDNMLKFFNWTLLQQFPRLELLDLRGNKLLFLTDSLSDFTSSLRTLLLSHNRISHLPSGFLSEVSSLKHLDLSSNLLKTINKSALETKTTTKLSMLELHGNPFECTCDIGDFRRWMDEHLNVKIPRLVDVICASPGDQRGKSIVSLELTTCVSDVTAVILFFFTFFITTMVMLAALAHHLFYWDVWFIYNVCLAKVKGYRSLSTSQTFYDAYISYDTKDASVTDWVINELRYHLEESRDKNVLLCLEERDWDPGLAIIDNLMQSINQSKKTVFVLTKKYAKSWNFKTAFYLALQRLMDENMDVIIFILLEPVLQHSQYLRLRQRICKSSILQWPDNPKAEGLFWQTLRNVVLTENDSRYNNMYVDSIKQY

TLR8 [4] = target: T2, TLR8; experiment: PBMC stimulation with p-L-arginine-complexed RNA ligands, TNF-α ELISA; conditions: human PBMCs, p-L-arginine complexes with 2′3′ cyclic GMP 5 μg/ml, ORN 0.6 μg/ml (FIG. 12)
Protocol: as §1

[5] = human PBMCs, DOTAP delivery, 0.6 μg/ml and 2 μg/ml, 16 hours (FIGS. 10A-10B)
[6] = human PBMCs, DOTAP delivery, 2 μg/ml (FIG. 10B)

| Substance | IFN-α secretion (TLR7 activity) (TLR7 [1]) | IFN-α secretion (TLR7 activity) (TLR7 [2]; [5]) | IFN-α secretion when co-delivered with 2′3′ cGMP (TLR7 [1]) | TNF-α secretion (TLR8 activity) (TLR8 [3]; [5]) | TNF-α secretion when co-delivered with 2′3′ cyclic GMP (TLR8 [4]) | further results |
| --- | --- | --- | --- | --- | --- | --- |
| C*G*G*C*U*C*G*G*C*A*G*A*A*G*C*C*G*G*G*C*C (rC*rG*rG*rC*rU*rC*rG*rG*rC*rA*rG*rA*rA*rG*rC*rC*rG*rG*rG*rC*rC) [ORN7024] | reduced activity |  |  |  |  |  |
| U-fC-U-fC-U-fC-U-fC-U-fC-U-fC-U-fC-U-fC-U-fC-U-C (rUfCrUfCrUfCrUfCrUfCrUfCrUfCrUfCrUfCrUrC) [ORN7007, 2′-fluoro-modified version of ORN7005] |  | also reduced activity | robust IFN-a induction | also reduced activity | little to no measurable TNF-α |  |
| C-A-G-A-C-C-U-U-C-C-A-G-A-C-C-U-U-C (CAGACCUUCCAGACCUUC; unmodified RNA) [ORN7001, de novo designed ligand] | no or only minor IFN-α secretion | induced TLR7 and TLR8 activity |  | induced TLR7 and TLR8 activity |  |  |
| U-mC-U-mC-U-mC-U-mC-U-mC-U-mC-U-mC-U-mC-U-mC-U-C (rUmCrUmCrUmCrUmCrUmCrUmCrUmCrUmCrUmCrUrC) [ORN7006, 2′O-methyl-modified version of ORN7005] |  | reduced both TLR8 and TLR7 activation | robust IFN-a induction | reduced both TLR8 and TLR7 activation | little to no measurable TNF-α |  |
| C-C-G-A-G-C-C-G-C-fU-U*fU-U*C-C-C (rCrCrGrArGrCrCrGrCfUrU*fUrU*rCrCrC) [ORN7019, 2′-fluoro-modified and phosphodiester-linked version of ORN7013] |  |  |  |  |  | IFN-α secretion (TLR7 activity) (TLR7 [2]; human PBMCs, DOTAP delivery, 0.6 μg/ml (FIG. 10A)): selective TLR7 activation; TNF-α secretion (TLR8 activity) (TLR8 [3]; [6]): also had TLR8-activity |
| UCUCUCUCUCUCUCUCUCUC (UCUCUCUCUCUCUCUCUCUC; unmodified RNA) [ORN7005, derived from pU1C of Zhang et al., 2018, reference compound] | no or only minor IFN-α secretion | activated TLR8 rather than TLR7 |  | activated TLR8 |  | IFN-α response to RNA ligand alone (no 2′3′ cGMP) (TLR7 [1]; p-L-arginine alone, ORN 0.6 μg/ml, one donor (FIGS. 12, 16A-16B)): unexpectedly high IFN-α response |
| C-C-G-A-G-C-C-G-C*U*U*U*U*C-C-C (rCrCrGrArGrCrCrGrC*rU*rU*rU*rU*rCrCrC) [ORN7022, phosphodiester-linked version of ORN7013] |  | activated both TLR7 and TLR8 |  | activated both TLR7 and TLR8 |  |  |
| C-C-fU-U-C-fU-U-C-fU-U-C-fU-U-C-fU-U-C-fU-U-C (rCrCfUrUrCfUrUrCfUrUrCfUrUrCfUrUrCfUrUrC) [ORN7011, 2′-fluoro-modified version of ORN7009] |  |  | robust IFN-a induction |  | little to no measurable TNF-α | IFN-α secretion (TLR7 activity) (TLR7 [2]; [6]): had TLR7-activity; TNF-α secretion (TLR8 activity) (TLR8 [3]; [6]): without TLR8 activity |
| U*C*U*C*U*C*U*C*U*C*U*C*U*C*U*C*U*C*U*C (rU*rC*rU*rC*rU*rC*rU*rC*rU*rC*rU*rC*rU*rC*rU*rC*rU*rC*rU*rC) [ORN7008] |  |  |  | further increased TLR8 activation |  |  |
| C-A-G-A-C-C*U*U*C-C-A-G-A-C-C*U*U*C (CAGACCUUCCAGACCUUC; linkages o5 s3 o6 s3 (s phosphorothioate, o phosphodiester), sugars by position not given here) [ORN7004] |  |  |  |  |  | IFN-α secretion (TLR7 activity) (TLR7 [2]): mildly increased TLR7 activity; TNF-α secretion (TLR8 activity) (TLR8 [3]): markedly increased TLR8 activity |
| C-C-mU-U-C-mU-U-C-mU-U-C-mU-U-C-mU-U-C-mU-U-C (rCrCmUrUrCmUrUrCmUrUrCmUrUrCmUrUrCmUrUrC) [ORN7010, 2′O-methyl-modified version of ORN7009] |  | reduced both TLR8 and TLR7 activation | robust IFN-a induction | reduced both TLR8 and TLR7 activation | little to no measurable TNF-α |  |
| C-G-G-fC-U-C-G-G-C-A-G-A-A-G-C-C-G-G-G-C-C (rCrGrGfCrUrCrGrGrCrArGrArArGrCrCrGrGrGrCrC; hairpin) [ORN7023F, 2′-fluoro-C-modified ORN7023] | further increasing the activity |  |  |  |  | TLR7 selectivity (IFN-α versus TNF-α secretion) (TLR7 [1]; p-L-arginine delivery (FIG. 7)): maintained TLR7 selectivity |
